From patent US6297032A, “Recombinant cephalosporin C amidohydrolase in cephalosporin biosynthesis” (Glaxo Group Limited, priority 1994, dated 2001)
Values belong to the compound of their own block, whether it stands above or below them.

What was measured:
[1] = tested on: cephalosporin C amidohydrolase; experiment: Enzyme activity assay, B965 whole cells (7ACA production); format: biochemical, Pseudomonas vesicularis B965
Description: (§1) Substrate buffer consists of 50 mM sodium phosphate buffer pH 7.0 containing 13.5 mg/ml cloxacillin and GL-7CA (3 mg/ml) or cephalosporin C (10 mg/ml). Cell suspensions or semi-purifed enzyme samples were incubated in substrate buffer for up to 24 hours at 37° C. At a suitable time a 100 μl aliquot of fluram reagent was then added, mixed and the sample incubated at room temperture for 1 hour. Fluram reagent consists of fluroescamine (Sigma Chemical Co) at 1 mg/ml in dry acetone. The presence of 7ACA in the reaction mix was detected after derivatisation of the free primary amine group by using fluorescence spectroscopy at an excitation wave length of 378 nm and emission detection at 498 nm in a flow injection assay system with 10% acetone in water as carrier fluid.
(§2) The enzyme reaction mix was derivatised as above a 20 μl sample applied in a mobile phase consisting of 35% acetonitrile, 0.1% trifluoroacetic acid in HPLC-grade water onto a 15 cm Hypersil ODS 5μ column at 32° C. with a flow rte of 1.5 ml/min. Detection by fluorescence spectroscopy was as above. In this system authentic 7ACA standard has a retention time of 6.7 minutes, with a minor degradation peak at
In typical experiments using these conditions B965 cells sufficient to fill a 10 μl inoculating loop produced 320 μg/ml 7ACA in 18 hours incubation GL-7ACA as substrate. […]

[2] = tested on: cephalosporin C amidohydrolase; experiment: Enzyme activity assay, E. coli B1113 extract after DE52 cellulose; format: biochemical, Pseudomonas vesicularis; conditions: extract 50
Description: as §1
E. coli B1113 was grown on TSB agar plates following the method of preparation 1(b). The confluent cell growth was processed for amidohydrolase recovery essentially following the procedure of preparation 1(d) to the cell-free extract stage.
Amidohydrolase activity was further purified by application of the cell-free extract to a DE52 cellulose column (Whatman Ltd, Maidstone, Kent ME14 2ME). The majority of proteins in the extract bind to the matrix and amidohydrolase activity is not retained. […]

[3] = tested on: cephalosporin C amidohydrolase; experiment: Substrate comparison, assay response by HPLC, enzyme from NM522/pVS44 cells; format: biochemical, Pseudomonas vesicularis
Description: as §2
(a) Assay response is given as product yield standardised to the 7ACA produced from GL-7ACA under equivalen reaction conditions. For this comparison it is assumed that products have molar extinction coefficients equivalent to 7ACA, such that the response was calculated directly from product peak area on HPLC. The standard reaction used 100 μl enzyme prepared by the procedure of preparation of 2(d) from NM522/p/VS44 cells, with 10 mg/ml substrate in overnight reaction at 27° C.
(b) Assay response obtained using 10 μl of above enzyme extract, with 3 mg/ml substrate in 2 hour reaction at 27° C. The actual response was then extrapolated to equivalent conditions to those used with the more slowly hydrolysed substrates.

[4] = tested on: cephalosporin C amidohydrolase; experiment: Enzyme activity assay, partially purified amidohydrolase recovered from B965; format: biochemical, Pseudomonas vesicularis B965
Description: as §1, with “Cell” for “Substrate buffer consists of 50 mM sodium phosphate buffer pH 7.0 containing 13.5 mg/ml cloxacillin and GL-7CA (3 mg/ml) or cephalosporin C (10 mg/ml). Cell”
B965 cells were cultured on TSB agar plates essentially by the method of preparation 1(b). The cells were harvested into enzyme buffer, washed and finally resuspended in 10 ml chilled enzyme buffer. Enzyme buffer is 100 mM sodium phosphate buffer (pH 7.0) containing 1 mM DTT and 1 mM benzamidine. The cells were lysed by sonication using a 650W output sonicator (model W-380, Heat System Ultrasonics Inc, 1938 New Highway, Farmingdale, N.Y. 11735, USA) on power settings 2-3, 50% cycle, for 12 , minutes . The extract was clarifed by centrifugation at 18,000 g for 15 minutes at 4° C. The supernatant was recovered, adjusted to 10 ml volume in enzyme buffer, then solid ammonium sulphate was added slowly with gentle mixing at 4° C. to 30% saturation. […]

[5] = tested on: cephalosporin C amidohydrolase; experiment: Cephalosporin C amidohydrolase enzyme properties, kinetic; format: biochemical, Pseudomonas vesicularis B965
Description: as §1
Further purification of the amidohydrolase was undertaken using an FPLC system (Pharmacia LKB Biotechnology, S-751 82 Uppsala, Sweden) in order to define the properties of the enzyme.
Material recovered from the 30-60% saturation ammonium sulphate precipitate was resuspended in MOPS buffer (10 mM MOPS pH8.0, 1 mM benzamidine). The solution was clarified by brief centrifugation followed by filration through a 0.2 micron filter. A 5 ml aliquot of enzyme mixture was applied to an HR5/5 MonoQ column pre-equilibrated with MOPS buffer. Amidohydrolase activity was recovered in the eluate between 2-4 after loading. This fraction was adjusted to 30% saturation in ammonium sulphate and loaded to an HR10/30 phenylsuperose column. Elution of protein was achieved using a salt gradient regime varying from 30%-0% saturation in ammonium sulphate with a running buffer consisting of 100 mM sodium phosphate pH7.0, 1 mM DTT. Amidohydrolase activity was recovered at between 18.5%-15.0% saturation of ammonium sulphate under these conditions.

[6] = tested on: cephalosporin C amidohydrolase; experiment: Enzyme activity assay, NM522/pVS44 extract after DE52 cellulose; format: biochemical, Pseudomonas vesicularis; conditions: 10 μl extract; 50 mg/ml cephalosporin C; 3 hour incubation at 27° C.
Description: as §1
Cephalosporin C amidohydrolase enzyme activity was recovered from NM522/pVS44 cells using procedures of preparation 1(b) and 1(c) to the cell free extract stage followed by chromatography on DE52 cellulose as described above. In a typical assay using the method of preparation 1(c), a 10 μl extract produced 12 μg/ml 7ACA from 50 mg/ml cephalosporin C in a 3 hour incubation at 27° C. This represents approximately 30-fold improvement over the level of activity obtained using B1113 strain extract aat an equivalent stage of purification.

[7] = tested on: gram-negative microorganisms; conditions: against gram-negative microorganisms; cited from earlier work
[8] = tested on: Immobilised amidohydrolase; experiment: Immobilised amidohydrolase activity (pH stat, DMAB assay); format: biochemical, Pseudomonas vesicularis; conditions: for Activity μmole 7ACA/min/g dry weight immobilised enzyme / Activity μmole/min/g wet weight immobilised enzyme: 50 mg/ml substrate in water, 25° C., pH 8.0
Description: E. coli strain NM522/pVS 44 was grown on TSB medium supplemented with 10 μg/ml choramphenicol and solidified with 1.5% w/v agar. Growth was for 2-4 days at 27.5° C. Cell paste was recovered by scraping from the agar surface, resuspended and washed in lysis buff (10 mM MOPS pH 8.0; 1 mM DTT; 1 mM benzamidine). About 65 g cell paste was lysed in 350 ml ice cold buffer by sonication (650W output, power setting 4, 5 passes through a continuous flow head at 35 ml/min flow, sample chilled on ice). The lysate was clarified by centrifugation (15,000 rpm, 30 min) to yield 3120 mg soluble protein. This material was passed over a 300 ml column of pre-equlibrated DE52 cellulose. Fractions eluting between 100 ml-500 ml after loading contained amidohydrolase activity in a total of 398 mg protein. The protein was concentrated using a centrifugal membrance device (Centriprep 30 concentrator, Amicon).
The concentrated extract (300 mg protein, 12.54 ml) was adjusted to 100 mM phosphate buffer pH 8.0:1 mM DTT; 1 mM benzamidine, and mixed with 3.0 g (dry weight) oxirane-linked polyacrylic matrix (Eupergit C: Rohm Pharma GmbH, D-6100 Darmstadt Germany). Immobilisation, monitored by protein removal from the liquid phase, was complete by 116 hours. About 120 mg protein became covalently linked to the support. Excess protein was removed by washing in the phosphate buffer.
Immobilised amidohydrolase activity was monitored by allowing the enzyme catalysed reaction to occur using an automated control system set to detect and maintain the reaction pH at a set point (a pH stat system). A pH monitor was set such that a fall in pH from the set point triggered a peristaltic pump to allow regulated dosing of alkali titrant.
A reaction volume of 50 ml contained 50 mg/ml substrate (GL-7ACA or Ceph C) in water maintained at 25° C. The reaction mix was adjusted to pH 8.0 using 2M NaOH as titrant before addition of about 3 g dry weight (12 g wet weight) immobilised enzyme to initate the reaction. The suspension was stirred using an overhead paddle type stirrer. Reaction progress was monitored by titrant addition rate and sampling at intervals. The samples were assayed for 7ACA by the DMAB method as in preparation 1(a). By this method the following activities were measured. (Table 8.)

[9] = 100 μl enzyme from NM522/pVS44 cells, 10 mg/ml substrate, overnight reaction at 27° C., standardised to 7ACA produced from GL-7ACA

SMILES: CC(=O)OCC1=C(C(=O)O)N2C(=O)[C@@H](NC(=O)CCC[C@@H](N)C(=O)O)[C@H]2SC1 [Ceph C, cephalosporin C]
7 ACA Produced ([1]; double the volume of B965 cells, cephalosporin C as substrate, overnight incubation): 5 µg/mL
7 ACA Produced ([2]; Ceph C 10 mg/ml, 4 hr): 4.5 µg/mL
Assay response (% rate of 7ACA) [3, 9]: 8.0%
7 ACA Produced ([4]; extract 80 μl, Ceph C 50 mg/ml, 8 hr): 14.5 µg/mL
Specific activity maximum ([5]; using Ceph C substrate): 0.141 μmol 7ACA/min/mg enzyme
7 ACA Produced [6]: 12 µg/mL
activity as an antibiotic [7]: some activity
Activity μmole 7ACA/min/g dry weight immobilised enzyme [8]: 0.95 μmole 7ACA/min/g dry weight im
Activity μmole/min/g wet weight immobilised enzyme [8]: 0.24 μmole/min/g wet weight immobil
maximum conversion ([8]; cephalosporin C substrate, 22 hours, immobilised enzyme): 1.7%

SMILES: CC(=O)OCC1=C(C(=O)O)N2C(=O)[C@@H](NC(=O)CCCC(=O)O)[C@H]2SC1 [GL-7ACA, 7-β-(4-carboxybutanamido)-cephalosporanic acid]
7 ACA Produced ([1]; B965 cells filling a 10 μl inoculating loop, GL-7ACA as substrate, 18 hours incubation): 320 µg/mL
7 ACA Produced ([2]; GL-7ACA 3 mg/ml, 3 hr): 102 µg/mL
Assay response (% rate of 7ACA) ([3]; 10 μl enzyme extract, 3 mg/ml substrate, 2 hour reaction at 27° C., extrapolated to equivalent conditions (reference = 100)): 100%
7 ACA Produced ([4]; extract 10 μl, GL-7ACA 2 mg/ml, 4 hr): 22 µg/mL
Km ([5]; GL-7ACA substrate at 1.2-7.2 mM): 2000 to 4000 µM
Activity μmole 7ACA/min/g dry weight immobilised enzyme [8]: 4.7 μmole 7ACA/min/g dry weight im
Activity μmole/min/g wet weight immobilised enzyme [8]: 1.2 μmole/min/g wet weight immobil
conversion achieved ([8]; GL-7ACA as substrate, immobilised enzyme): 9.0%

Inhibitors (inhibitory concentration) [5]: > 6 % w/v
SMILES: N.N.O=S(=O)(O)O [ammonium sulphate]

SMILES: O=C(CCCC(NC(=O)c1ccccc1)C(=O)O)N[C@@H]1C(=O)N2C(C(=O)[O-])=C(C[n+]3ccccc3)CS[C@H]12 (some centres unmarked) [benzoylcephalosporin-3-pyridiniummethyl]
Assay response (% rate of 7ACA) [3, 9]: 3.5%

SMILES: N[C@H](CCCC(=O)N[C@@H]1C(=O)N2C(C(=O)O)=C(CO)CS[C@H]12)C(=O)O [deacetylcephalosporin C]
Assay response (% rate of 7ACA) [3, 9]: 9.8%

SMILES: CC(=O)OCC1=C(C(=O)O)N2C(=O)[C@@H](NC(=O)CCC(=O)O)[C@H]2SC1 [succinyl-7ACA]
Assay response (% rate of 7ACA) [3, 9]: 0.8%

SMILES: CC(=O)OCC1=C(C(=O)O)N2C(=O)[C@@H](NC(=O)CCCC(NC(=O)c3ccccc3)C(=O)O)[C@H]2SC1 (some centres unmarked) [benzoylcephalosporin C]
Assay response (% rate of 7ACA) [3, 9]: 2.8%
